In patent US20260022142A1, “MACROCYCLIC IMMUNOMODULATORS” (Bristol-Myers Squibb Company, priority 2022, published 2026) one finds IC50 data, which are given here for 9 molecules.

The structures appear in SMILES notation. Bridge positions count the residues as written; N and C are the ends. Square brackets hold non-standard residues; d marks the D form. Peptide text beside a SMILES is read from it. * marks the point of attachment. ξ: configuration not given here. Tyr(3,5-F2) = N[C@@H](Cc1cc(F)c(O)c(F)c1)C(=O)O; Phe(4-COOH) = N[C@@H](Cc1ccc(C(=O)O)cc1)C(=O)O; Bip = N[C@@H](Cc1ccc(-c2ccccc2)cc1)C(=O)O; NH(CH2)14COOH = O=C(O)CCCCCCCCCCCCCCN*; Phe(3-Me) = Cc1cccc(C[C@H](N)C(=O)O)c1; Val(3-OH) = CC(C)(O)[C@H](N)C(=O)O; 4Pal = N[C@@H](Cc1ccncc1)C(=O)O; Cha = N[C@@H](CC1CCCCC1)C(=O)O; Thr(3ξ) = CC(O)[C@H](N)C(=O)O; dDab = NCC[C@@H](N)C(=O)O; Carboxymethyl = O=C(O)C*; Orn = NCCC[C@H](N)C(=O)O; Aun = NCCCCCCCCCCC(=O)O; Dab = NCC[C@H](N)C(=O)O; Dap = NC[C@H](N)C(=O)O; AEEA = NCCOCCOCC(=O)O; Piv = CC(C)(C)C(=O)*

For the assay, the target named is T1, PD-1/PD-L1 interaction (PE-labeled human PD-L1-Ig binding to Jurkat cell line over-expressing human PD-1) (Homo sapiens, UniProt Q15116).
T1 construct: expressed in transfected cells; host or cells: Jurkat
T1 sequence (Q15116 25-288): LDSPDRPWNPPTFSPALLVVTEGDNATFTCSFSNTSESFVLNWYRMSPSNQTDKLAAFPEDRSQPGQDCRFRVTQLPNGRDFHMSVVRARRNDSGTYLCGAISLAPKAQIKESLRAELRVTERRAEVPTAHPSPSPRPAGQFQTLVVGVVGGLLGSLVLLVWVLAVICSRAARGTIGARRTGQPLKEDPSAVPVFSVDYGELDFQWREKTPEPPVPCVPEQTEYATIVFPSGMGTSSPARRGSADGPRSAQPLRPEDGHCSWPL
Kind of assay: Jurkat-PD-1 Cell Binding High-Content Screening Assay (CBA). It counts as cell-based. Particulars: Jurkat cell line over-expressing human PD-1; PE-labeled PD-L1-Ig 20 nM final; read-out: Jurkat hPD1-PDL1 IC50. Put shortly: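 Jurkat cells over-expressing human PD-1 (8×10^3 per well, DMEM/10% FCS) preincubated with compound 2 h at 37° C, then PE-labeled human PD-L1-Ig (20 nM final) added for 1 h. Cells fixed with paraformaldehyde, Hoechst-stained, and bound fluorescence quantified by high-content imaging.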
The term IC50 denotes the concentration that inhibits the measured activity by half. As to `Cc1cccc(C[C@@H]2NC(=O)[C@H](CC(=O)O)NC(=O)[C@H](Cc3ccc(OCC(=O)O)cc3)NC(=O)[C@H](CN)NC(=O)CSC[C@@H](C(=O)N[C@@H](CCN)C(=O)NCCOCCOCC(=O)NCCCCCCCCCCC(=O)O)NC(=O)[C@H](CCCN)NC(=O)[C@H](C(C)C)NC(=O)[C@H](CC3CCCCC3)NC(=O)[C@H](CCN)NC(=O)[C@@H](CC(C)C)NC(=O)[C@H](CCCN)NC(=O)[C@H](Cc3cc(F)c(O)c(F)c3)NC(=O)[C@H](Cc3ccc(-c4ccccc4)cc3)NC(=O)[C@H](Cc3ccc(O)cc3)NC2=O)c1` [Compound 2058] ({CH2CO}-[Dap]Y(Carboxymethyl)D[Phe(3-Me)]Y[Bip][Tyr(3,5-F2)][Orn][dL][Dab][Cha]V[Orn]C[Dab][AEEA][Aun]-OH; thioether N-14), the IC50 worked out at 4.7 nM.

For the molecule `CC(C)C[C@H]1NC(=O)[C@H](CCCN)NC(=O)[C@H](CCC(=O)O)NC(=O)[C@H](Cc2ccc(-c3ccccc3)cc2)NC(=O)[C@H](C(C)C)NC(=O)[C@H](Cc2c[nH]c3ccccc23)NC(=O)[C@H](CC(=O)O)NC(=O)[C@H](Cc2ccc(OCC(=O)O)cc2)NC(=O)[C@H](Cc2ccc(OCC(=O)O)cc2)NC(=O)CSC[C@@H](C(=O)NCCOCCOCC(=O)N[C@@H](CCN)C(=O)NCCCCCCCCCCC(=O)O)NC(=O)[C@H](CCCNC(=N)N)NC(=O)[C@H](C(C)C)NC(=O)[C@H](CC2CCCCC2)NC(=O)[C@H](CCN)NC1=O` [Compound 2671] ({CH2CO}-Y(Carboxymethyl)Y(Carboxymethyl)DWV[Bip]E[Orn][dL][Dab][Cha]VRC[AEEA][Dab][Aun]-OH; thioether N-14), the IC50 came to 14.1 nM.

`CC(C)C[C@H]1NC(=O)[C@H](CCCN)NC(=O)[C@H](C(C)C)NC(=O)[C@H](Cc2ccc(-c3ccccc3)cc2)NC(=O)[C@H](C(C)C)NC(=O)[C@H](Cc2c[nH]c3ccccc23)NC(=O)[C@H](CC(=O)O)NC(=O)[C@H](Cc2ccc(OCC(=O)O)cc2)NC(=O)[C@H](Cc2ccc(OCC(=O)O)cc2)NC(=O)CSC[C@@H](C(=O)N[C@@H](CCN)C(=O)NCCCCCCCCCCC(=O)O)NC(=O)[C@H](CN)NC(=O)[C@H](C(C)C)NC(=O)[C@H](CC2CCCCC2)NC(=O)[C@H](CCN)NC1=O` [Compound 2562] ({CH2CO}-Y(Carboxymethyl)Y(Carboxymethyl)DWV[Bip]V[Orn][dL][Dab][Cha]V[Dap]C[Dab][Aun]-OH; thioether N-14): the IC50 was determined as 39.2 nM.

For the molecule `Cc1cccc(C[C@@H]2NC(=O)[C@H](CC(=O)O)NC(=O)[C@H](Cc3ccc(OCC(=O)O)cc3)NC(=O)[C@H](CN)NC(=O)CSC[C@@H](C(=O)NCCCCCCCCCCC(=O)O)NC(=O)[C@H](CN)NC(=O)[C@H](C(C)C)NC(=O)[C@H](CC3CCCCC3)NC(=O)[C@H](CCN)NC(=O)[C@@H](CC(C)C)NC(=O)[C@H](CCCN)NC(=O)[C@H](C(C)C)NC(=O)[C@H](Cc3ccc(-c4ccccc4)cc3)NC(=O)[C@H](C(C)C)NC2=O)c1` [Compound 2604] ({CH2CO}-[Dap]Y(Carboxymethyl)D[Phe(3-Me)]V[Bip]V[Orn][dL][Dab][Cha]V[Dap]C[Aun]-OH; thioether N-14), the IC50 amounted to 13.2 nM.

Consider `CC(C)C[C@H]1NC(=O)[C@H](CCCN)NC(=O)[C@H](C(C)C)NC(=O)[C@H](Cc2ccc(-c3ccccc3)cc2)NC(=O)[C@H](C(C)C)NC(=O)[C@H](Cc2c[nH]c3ccccc23)NC(=O)[C@H](CC(=O)O)NC(=O)[C@H](Cc2ccc(OCC(=O)O)cc2)NC(=O)[C@H](CN)NC(=O)CSC[C@@H](C(=O)NCCOCCOCC(=O)N[C@H](CCN)C(=O)NCCCCCCCCCCC(=O)O)NC(=O)[C@H]([C@@H](C)O)NC(=O)[C@H](C(C)C)NC(=O)[C@H](CC2CCCCC2)NC(=O)[C@H](Cc2cnc[nH]2)NC1=O` [Compound 1129] ({CH2CO}-[Dap]Y(Carboxymethyl)DWV[Bip]V[Orn][dL]H[Cha]VTC[AEEA][dDab][Aun]-OH; thioether N-14), for which the IC50 came to 37.4 nM.

With `Cc1cccc(C[C@@H]2NC(=O)[C@H](CC(=O)O)NC(=O)[C@H](Cc3ccc(OCC(=O)O)cc3)NC(=O)[C@H](C)NC(=O)CSC[C@@H](C(=O)N[C@@H](CCN)C(=O)NCCOCCOCC(=O)NCCOCCOCC(=O)NCCOCCOCC(=O)NCCCCCCCCCCCCCCC(=O)O)NC(=O)[C@H](CO)NC(=O)[C@H](C(C)(C)O)NC(=O)[C@H](CC3CCCCC3)NC(=O)[C@H](CCN)NC(=O)[C@@H](CC(C)C)NC(=O)[C@H](CCCN)NC(=O)[C@H](Cc3ccc(C(=O)O)cc3)NC(=O)[C@H](Cc3ccc(-c4ccccc4)cc3)NC(=O)[C@H](Cc3ccc(C(=O)O)cc3)NC2=O)c1` [Compound 3854] ({CH2CO}-AY(Carboxymethyl)D[Phe(3-Me)][Phe(4-COOH)][Bip][Phe(4-COOH)][Orn][dL][Dab][Cha][Val(3-OH)]SC[Dab][AEEA][AEEA][AEEA]-{NH(CH2)14COOH}; thioether N-14), the IC50 is 45.2 nM.

For the molecule `Cc1cccc(C[C@@H]2NC(=O)[C@H](CC(=O)O)NC(=O)[C@H](Cc3ccc(OCC(=O)O)cc3)NC(=O)[C@H](CCN)NC(=O)CSC[C@@H](C(=O)N[C@@H](CCN)C(=O)NCCOCCOCC(=O)NCCCCCCCCCCC(=O)O)NC(=O)[C@H](CCCN)NC(=O)[C@H](C(C)C)NC(=O)[C@H](CC3CCCCC3)NC(=O)[C@H](CCN)NC(=O)[C@@H](CC(C)C)NC(=O)[C@H](CCCN)NC(=O)[C@H](Cc3ccc(O)cc3)NC(=O)[C@H](Cc3ccc(-c4ccccc4)cc3)NC(=O)[C@H](CCCCNC(=O)C(C)(C)C)NC2=O)c1` [Compound 3610] ({CH2CO}-[Dab]Y(Carboxymethyl)D[Phe(3-Me)]K(Piv)[Bip]Y[Orn][dL][Dab][Cha]V[Orn]C[Dab][AEEA][Aun]-OH; thioether N-14), the IC50 turned out to be 10.1 nM.

In the case of `CC(C)C[C@H]1NC(=O)[C@H](CCCN)NC(=O)[C@H](C(C)C)NC(=O)[C@H](Cc2ccc(-c3ccccc3)cc2)NC(=O)[C@H](C(C)C)NC(=O)[C@H](Cc2c[nH]c3ccccc23)NC(=O)[C@H](CC(=O)O)NC(=O)[C@H](Cc2ccc(OCC(=O)O)cc2)NC(=O)[C@H](CN)NC(=O)CSC[C@@H](C(=O)N[C@@H](CCN)C(=O)NCCCCCCCCCCC(=O)O)NC(=O)[C@H](CO)NC(=O)[C@H](C(C)O)NC(=O)[C@H](CC2CCCCC2)NC(=O)[C@H](CCN)NC1=O` (stereo partly drawn) [Compound 3651] ({CH2CO}-[Dap]Y(Carboxymethyl)DWV[Bip]V[Orn][dL][Dab][Cha][Thr(3ξ)]SC[Dab][Aun]-OH; thioether N-14), the IC50 came to 24.1 nM.

On to `CC(C)C[C@@H]1NC(=O)[C@H](Cc2c[nH]c3ccccc23)NC(=O)[C@H](CC(=O)O)NC(=O)[C@H](Cc2ccc(C(=O)O)cc2)NC(=O)[C@H](Cc2ccncc2)NC(=O)CSC[C@@H](C(=O)N[C@@H](CCN)C(=O)NCCOCCOCC(=O)N[C@@H](CCCN)C(=O)NCCCCCCCCCCC(=O)O)NC(=O)[C@H](CO)NC(=O)[C@H](C(C)C)NC(=O)[C@H](CC2CCCCC2)NC(=O)[C@H](CCN)NC(=O)[C@@H](CC(C)C)NC(=O)[C@H](CCCN)NC(=O)[C@H](C(C)C)NC(=O)[C@H](Cc2ccc(-c3ccccc3)cc2)NC1=O` [Compound 3195] ({CH2CO}-[4Pal][Phe(4-COOH)]DWL[Bip]V[Orn][dL][Dab][Cha]VSC[Dab][AEEA][Orn][Aun]-OH; thioether N-14), for which the IC50 came to 57.3 nM.
